Here are results for 13 compounds from PubChem BioAssay (NCI).

Among the test systems are A549 NSCLC; UACC-257 melanoma; SNB-19 CNS; XF 498 CNS; ACHN renal; OVCAR-8 ovarian; SNB-78 CNS; HCC-2998 colon; CAKI-1 renal; OVCAR-5 ovarian.
Common to all, as to experiment: growth of human tumour cells (NCI), 48 h

Several values for one entry are separate records, joined by “and”; a condition that tells them apart may be missing. Equal entries are not always repeated.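 1) Cells in 96-well plates. 2) Compound, 48 h, 5 concentrations. 3) Linear interpolation between surrounding doses. 4) Unreached endpoint = highest concentration. Here, GI50 denotes the concentration required for 50% inhibition of growth. TGI is the concentration that stops growth completely.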 Some results are limits rather than exact numbers.

`COc1ccc(-c2nnc(-c3c(C)n(C)n(-c4ccccc4)c3=O)o2)cc1`: the TGI in the assay with A549 NSCLC, with UACC-257 melanoma, in the assay on SNB-19 CNS, in the assay on XF 498 CNS, with ACHN renal and in the assay on OVCAR-8 ovarian was above 100 µM each time. Moreover, the TGI in the assay with SNB-78 CNS and with HCC-2998 colon was above 100 µM each time.
As for `CCCCN=C(NC#N)N(Cc1ccccc1)Cc1ccccc1`, the TGI is above 100 µM in the assay with A549 NSCLC; 64.9 µM in the assay with UACC-257 melanoma; above 100 µM in the assay on SNB-19 CNS; 98.8 µM in the assay on ACHN renal; 66.4 µM in the assay with CAKI-1 renal; 87.5 µM in the assay on OVCAR-5 ovarian. The TGI with OVCAR-8 ovarian is above 100 µM; in the assay on SNB-78 CNS it was above 100 µM; with HCC-2998 colon, 62.1 µM.
For the compound `COc1cc([C@H]2c3cc4c(cc3[C@H](NCc3ccc([N+](=O)[O-])cc3)C3COC(=O)[C@H]32)OCO4)cc(OC)c1O` (stereo not given in full), the TGI is 2.23 µM in the assay with A549 NSCLC; above 81.8 µM in the assay on UACC-257 melanoma; 21.4 µM in the assay on SNB-19 CNS; 20.4 µM in the assay with XF 498 CNS; 2.32 µM in the assay on ACHN renal; 4.58 µM with CAKI-1 renal. Moreover, the TGI in the assay on OVCAR-5 ovarian is above 26 µM; in the assay with OVCAR-8 ovarian, 7.62 µM; in the assay on SNB-78 CNS it was above 100 µM; in the assay on HCC-2998 colon, 3.98 µM.
Turning to `CCC(=O)C(C)C(=O)C(=O)C(=O)OC` (stereo not given), the TGI with A549 NSCLC, with UACC-257 melanoma, in the assay on SNB-19 CNS, in the assay on XF 498 CNS, in the assay with ACHN renal and in the assay on CAKI-1 renal was above 100 µM in each case. Also, the TGI with OVCAR-5 ovarian, in the assay with OVCAR-8 ovarian, with SNB-78 CNS and in the assay on HCC-2998 colon was above 100 µM each time.
Regarding `COC(=O)[C@@]1(O)CC(C)C=C1C=O` (stereo not given in full), the TGI with A549 NSCLC was 60.9 µM; with UACC-257 melanoma, above 100 µM; in the assay on SNB-19 CNS, above 100 µM; in the assay on XF 498 CNS, above 100 µM; in the assay with ACHN renal it was above 100 µM; in the assay on CAKI-1 renal, above 100 µM. Also, the TGI in the assay on OVCAR-5 ovarian, with OVCAR-8 ovarian, with SNB-78 CNS and with HCC-2998 colon was above 100 µM each time.
Consider `CCO/C=C1\N=C(C(Cl)c2ccccc2)OC1=O` (stereo not given), for which the TGI in the assay with A549 NSCLC, with UACC-257 melanoma, with SNB-19 CNS, in the assay on XF 498 CNS, in the assay on ACHN renal and with CAKI-1 renal was above 100 µM in each case. Further, the TGI in the assay on OVCAR-5 ovarian, with OVCAR-8 ovarian, in the assay on SNB-78 CNS and in the assay with HCC-2998 colon was above 100 µM in each case.
As to `CCOC(=O)NC1=C(N2CC2)C(=O)C(NC(=O)OCC)=C(N2CC2)C1=O`, the GI50 in the assay on A549 NSCLC was 6.46 µM and 1.64 µM and 3.09 µM; in the assay on UACC-257 melanoma, 6.96 µM; in the assay with SNB-19 CNS, 6.66 µM; in the assay with ACHN renal it was 1.32 µM and 1.06 µM; in the assay with CAKI-1 renal, 2.53 µM and 3.42 µM; in the assay on OVCAR-5 ovarian, 19.9 µM and 7.01 µM. Also, the GI50 with OVCAR-8 ovarian is 4.71 µM; in the assay on SNB-78 CNS, 9.36 µM; with HCC-2998 colon it was 20 µM and 10.3 µM. Moreover, the TGI in the assay with A549 NSCLC was 25 µM and 43 µM and 40.2 µM; in the assay on UACC-257 melanoma, 25 µM and 19.9 µM; with SNB-19 CNS it was 25 µM and 30.2 µM; in the assay with XF 498 CNS, 8.75 µM; with ACHN renal it was 20.3 µM and 12.7 µM and 23.6 µM; in the assay on CAKI-1 renal it was 13.2 µM and 18.3 µM and 23.7 µM. In addition, the TGI with OVCAR-5 ovarian was 25 µM and 32.6 µM and 35.9 µM; in the assay with OVCAR-8 ovarian it was 14.3 µM and 14.5 µM; with SNB-78 CNS, 24.2 µM and 28.5 µM; in the assay with HCC-2998 colon it was 25 µM and 23.2 µM and 35 µM.
On to `NC(=S)N/N=C/c1ccc(O)cn1`, for which the GI50 in the assay with A549 NSCLC is 33.2 µM and 41.1 µM; with UACC-257 melanoma, 25.6 µM and 34 µM; in the assay with SNB-19 CNS, 29.2 µM and 8.2 µM; in the assay with XF 498 CNS it was 15.6 µM; in the assay on ACHN renal, 4.14 µM; in the assay with CAKI-1 renal, 32.1 µM and 21.8 µM and 8.53 µM. Besides, the GI50 in the assay on OVCAR-5 ovarian is 30.2 µM and 34.8 µM; with OVCAR-8 ovarian it was 4.71 µM. Further, the TGI was > 1500 µM and 584 µM with A549 NSCLC; 74.2 µM and 112 µM and 149 µM in the assay on UACC-257 melanoma; 1020 µM and > 1360 µM in the assay with SNB-19 CNS; 94 µM and 168 µM with XF 498 CNS; 40.8 µM and 16.1 µM in the assay with ACHN renal; 178 µM and 339 µM in the assay with CAKI-1 renal. For the same compound, the TGI was > 1500 µM and 928 µM in the assay with OVCAR-5 ovarian; 72.3 µM and 161 µM and 393 µM in the assay on OVCAR-8 ovarian.
`CCCCCCCC(=O)OCC1OC(n2cc(F)c(=O)[nH]c2=O)C(NC(=O)OCc2ccccc2)C(O)C1O` (stereo not given): the TGI with A549 NSCLC, in the assay with UACC-257 melanoma, with SNB-19 CNS, in the assay on ACHN renal, in the assay on CAKI-1 renal and with OVCAR-8 ovarian was above 100 µM each time. The TGI with SNB-78 CNS was above 100 µM; in the assay with HCC-2998 colon, 52.2 µM.
As to `O=c1cc(-c2ccccc2)nc(/C=C(\O)c2ccncc2)n1-c1ccccc1`, the TGI with A549 NSCLC, with UACC-257 melanoma, in the assay with SNB-19 CNS, in the assay on ACHN renal, with CAKI-1 renal and in the assay on OVCAR-5 ovarian was above 100 µM throughout. For the same compound, the TGI with OVCAR-8 ovarian, in the assay on SNB-78 CNS and in the assay on HCC-2998 colon was above 100 µM each time.
Turning to `COc1ccc(OC)c(NCC#N)c1`, the TGI in the assay on A549 NSCLC, with UACC-257 melanoma, in the assay with SNB-19 CNS, in the assay on XF 498 CNS, with ACHN renal and in the assay on OVCAR-8 ovarian was above 100 µM in each case. In the assay with HCC-2998 colon, this compound yielded a TGI above 100 µM.
In the case of `O=c1nc(NC(c2ccccc2)(c2ccccc2)c2ccccc2)ccn1CCO`, the TGI in the assay on A549 NSCLC, with UACC-257 melanoma, in the assay on SNB-19 CNS, in the assay with ACHN renal, with OVCAR-5 ovarian and in the assay on OVCAR-8 ovarian was above 100 µM each time. Besides, the TGI in the assay with SNB-78 CNS and in the assay with HCC-2998 colon was above 100 µM throughout.
As for `C[C@]1(C(=O)O)N[C@H](C(=O)O)CS1`, the GI50 is above 1000 µM in the assay on A549 NSCLC; above 1000 µM in the assay with UACC-257 melanoma; above 1000 µM with SNB-19 CNS; above 1000 µM with ACHN renal; 843 µM in the assay with CAKI-1 renal; above 1000 µM with OVCAR-5 ovarian. Further, the GI50 was above 1000 µM with OVCAR-8 ovarian and 921 µM with HCC-2998 colon. Moreover, the TGI in the assay with A549 NSCLC, in the assay with UACC-257 melanoma, in the assay on SNB-19 CNS, with ACHN renal, with CAKI-1 renal and in the assay with OVCAR-5 ovarian was above 1000 µM each time. Also, the TGI in the assay on OVCAR-8 ovarian and in the assay with HCC-2998 colon was above 1000 µM throughout.
